Results as given in US9802941B2, “Compounds and methods for inhibiting histone demethylases” (Gilead Sciences, Inc., priority 2014, dated 2017).
Like-named read-outs stand apart in the source and are kept apart here.

Tests used:
Type in all cases: biochemical
[1] = target: T1, KDM4C (JMJD2C) (Homo sapiens, UniProt Q9H3R0); assay: Histone lysine demethylase AlphaLISA assay, KDM4C
T1 construct: KDM4C; BRIC, Denmark; 1-349; E. coli; host or cells: E. coli
T1 sequence (Q9H3R0 1-349): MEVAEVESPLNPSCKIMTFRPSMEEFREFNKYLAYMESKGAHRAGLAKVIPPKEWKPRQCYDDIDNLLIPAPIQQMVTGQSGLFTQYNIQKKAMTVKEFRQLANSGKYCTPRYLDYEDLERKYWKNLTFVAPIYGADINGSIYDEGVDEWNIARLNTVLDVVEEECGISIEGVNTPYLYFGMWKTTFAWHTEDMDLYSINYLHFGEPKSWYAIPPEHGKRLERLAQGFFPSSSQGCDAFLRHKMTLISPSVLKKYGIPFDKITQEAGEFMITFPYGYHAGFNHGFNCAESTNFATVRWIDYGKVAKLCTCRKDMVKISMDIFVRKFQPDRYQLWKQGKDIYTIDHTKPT
Procedure, shortened: (§1)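 Compounds preincubated 10 min with each demethylase in Hepes buffer (pH 7.4-8.0) containing Tween-20, 0.1% BSA and 5 μM Fe(II); substrate then added, room-temperature reaction. Read-out by AlphaLISA acceptor and streptavidin donor beads after incubation in the dark.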

[2] = target: T2, KDM2B (FBXL10) (Homo sapiens, UniProt Q8NHM5); assay: Histone lysine demethylase AlphaLISA assay, KDM2B
T2 construct: KDM2B; BPS,; 1-650; Bac; purchased BPS Bioscience, US; host or cells: baculovirus system
T2 sequence (Q8NHM5 1-650): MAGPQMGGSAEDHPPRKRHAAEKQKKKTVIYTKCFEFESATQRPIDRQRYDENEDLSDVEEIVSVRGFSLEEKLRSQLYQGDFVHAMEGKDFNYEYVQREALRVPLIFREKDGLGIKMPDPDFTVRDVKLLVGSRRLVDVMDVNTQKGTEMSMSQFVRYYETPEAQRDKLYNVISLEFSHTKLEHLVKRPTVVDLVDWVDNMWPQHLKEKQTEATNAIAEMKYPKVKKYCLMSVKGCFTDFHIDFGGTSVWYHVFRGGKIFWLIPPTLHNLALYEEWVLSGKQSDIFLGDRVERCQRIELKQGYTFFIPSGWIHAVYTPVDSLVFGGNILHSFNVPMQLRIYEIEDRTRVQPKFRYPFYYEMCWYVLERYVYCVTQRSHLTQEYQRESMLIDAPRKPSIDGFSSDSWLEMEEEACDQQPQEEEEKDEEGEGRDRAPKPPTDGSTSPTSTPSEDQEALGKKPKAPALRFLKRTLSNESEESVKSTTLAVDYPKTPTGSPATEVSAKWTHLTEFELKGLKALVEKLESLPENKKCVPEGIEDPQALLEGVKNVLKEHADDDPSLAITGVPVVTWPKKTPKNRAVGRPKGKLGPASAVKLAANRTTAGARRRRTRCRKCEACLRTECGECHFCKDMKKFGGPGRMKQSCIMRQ
Procedure, shortened: as §1

[3] = target: T3, PHF8 (KDM7) (Homo sapiens, UniProt Q9UPP1); assay: Histone lysine demethylase AlphaLISA assay, PHF8
T3 construct: KDM7 (PHF8); BRIC; 1-1322; Bac
Procedure, shortened: as §1

[4] = target: T4, KDM5B (PLU-1) (Homo sapiens, UniProt Q9UGL1); assay: Histone lysine demethylase AlphaLISA assay, KDM5B
T4 construct: BRIC; 1-809; E. coli; host or cells: E. coli
T4 sequence (Q9UGL1 1-809): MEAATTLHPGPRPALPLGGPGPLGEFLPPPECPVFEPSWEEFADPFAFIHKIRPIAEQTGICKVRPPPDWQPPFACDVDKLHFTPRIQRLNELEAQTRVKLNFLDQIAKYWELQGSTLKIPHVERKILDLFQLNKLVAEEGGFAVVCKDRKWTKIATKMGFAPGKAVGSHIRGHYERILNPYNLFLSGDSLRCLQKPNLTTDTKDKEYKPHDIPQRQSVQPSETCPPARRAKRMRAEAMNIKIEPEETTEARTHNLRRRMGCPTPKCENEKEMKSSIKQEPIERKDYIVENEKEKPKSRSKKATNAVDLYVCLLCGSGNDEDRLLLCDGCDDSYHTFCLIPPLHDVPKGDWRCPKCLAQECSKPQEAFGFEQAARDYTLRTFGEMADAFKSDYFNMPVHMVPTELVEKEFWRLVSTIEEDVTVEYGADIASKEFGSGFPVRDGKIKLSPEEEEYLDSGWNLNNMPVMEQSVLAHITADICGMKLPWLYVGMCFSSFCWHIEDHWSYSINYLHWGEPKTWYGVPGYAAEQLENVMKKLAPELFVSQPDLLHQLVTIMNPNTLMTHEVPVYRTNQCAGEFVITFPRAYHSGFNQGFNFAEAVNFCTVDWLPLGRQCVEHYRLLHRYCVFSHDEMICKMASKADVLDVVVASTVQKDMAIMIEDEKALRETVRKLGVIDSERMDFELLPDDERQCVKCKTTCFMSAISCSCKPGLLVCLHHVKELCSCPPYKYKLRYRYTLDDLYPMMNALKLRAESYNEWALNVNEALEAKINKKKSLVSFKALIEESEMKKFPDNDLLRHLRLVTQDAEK
Procedure, shortened: as §1

[5] = AlphaLISA assay, read-out: HDME Inhibition KDM4C (IC50)
[6] = AlphaLISA, in vitro, read-out: HDME Inhibition KDM4C
[7] = AlphaLISA, in vitro, read-out: HDME Inhibition KDM2B
[8] = AlphaLISA, in vitro, read-out: HDME Inhibition PHF8
[9] = AlphaLISA assay, read-out: HDME Inhibition KDM5B (IC50)
[10] = AlphaLISA, in vitro, read-out: HDME Inhibition KDM5B
[11] = AlphaLISA assay, read-out: HDME Inhibition PHF8 (IC50)
[12] = AlphaLISA assay, read-out: HDME Inhibition KDM2B (IC50)

T3 sequence (Q9UPP1 37-440 limits assumed): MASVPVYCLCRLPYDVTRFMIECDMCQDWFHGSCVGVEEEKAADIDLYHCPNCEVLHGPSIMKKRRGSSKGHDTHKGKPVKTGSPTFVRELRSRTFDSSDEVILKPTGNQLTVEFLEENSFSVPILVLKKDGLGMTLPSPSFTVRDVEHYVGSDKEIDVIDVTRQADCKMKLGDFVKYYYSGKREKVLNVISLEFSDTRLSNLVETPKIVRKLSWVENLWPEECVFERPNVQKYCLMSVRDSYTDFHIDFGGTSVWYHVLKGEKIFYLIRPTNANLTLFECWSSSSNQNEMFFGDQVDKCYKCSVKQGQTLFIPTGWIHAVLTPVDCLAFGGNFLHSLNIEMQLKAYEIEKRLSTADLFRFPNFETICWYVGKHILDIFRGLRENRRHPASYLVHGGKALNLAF

Row | Compound | IC50 [1, 5] [µM] | IC50 [1, 6] [µM] | IC50 [2, 7] [µM] | IC50 [3, 8] [µM] | IC50 [4, 9] [µM] | IC50 [4, 10] [µM] | IC50 [3, 11] [µM] | IC50 [4] [µM] | IC50 [2, 12] [µM]
1 | CCc1cnc(CNCc2cc(C(=O)O)cc(C)n2)n1CCCC(C)C [Compound 91, 2-[({[5-ethyl-1-(4-methylpentyl)-1H-imidazol-2-yl]methyl}amino)methyl]-6-methylpyridine-4-carboxylic acid] | > 10 | > 10 | 0.328 | 1.11 | > 10 | > 10 | – | – | –
2 | CCN(CCN(C)C)C(=O)CNCc1cc(C(=O)O)cc(C)n1 [Compound 98, 2-{[({[2-(dimethylamino)ethyl](ethyl)carbamoyl}methyl)amino]methyl}-6-methylpyridine-4-carboxylic acid] | – | 1.67 | 0.53 | > 10 | – | 0.008 | > 10 | – | –
3 | CCc1cnc(CNCc2cc(C(=O)O)cc(CO)n2)n1Cc1ccc(F)cc1 [Compound 100, 2-{[({5-ethyl-1-[(4-fluorophenyl)methyl]-1H-imidazol-2-yl}methyl)amino]methyl}-6-(hydroxymethyl)pyridine-4-carboxylic acid] | > 10 | > 10 | 0.07 | 1.15 | – | – | – | 0.635 | –
4 | O=C(O)c1cc(CO)nc(CNCc2nnc(-c3ccccc3)n2CCCc2ccccc2)c1 [Compound 99, 2-(hydroxymethyl)-6-[({[5-phenyl-4-(3-phenylpropyl)-4H-1,2,4-triazol-3-yl]methyl}amino)methyl]pyridine-4-carboxylic acid] | > 10 | > 10 | > 10 | > 10 | – | – | > 10 | 8.41 | > 10
5 | O=C(O)c1cc(CO)nc(CNCc2nnc(-c3cccs3)n2CCCc2ccccc2)c1 [Compound 95, 2-(hydroxymethyl)-6-[({[4-(3-phenylpropyl)-5-(thiophen-2-yl)-4H-1,2,4-triazol-3-yl]methyl}amino}methyl]pyridine-4-carboxylic acid] | > 10 | > 10 | 0.389 | 9.65 | > 10 | > 10 | – | – | –
6 | Cc1cc(C(=O)O)cc(CNCc2nncn2C/C=C/c2ccccc2)n1 [Compound 67, 2-methyl-6-{[({4-[(2E)-3-phenylprop-2-en-1-yl]-4H-1,2,4-triazol-3-yl}methyl)amino]methyl}pyridine-4-carboxylic acid] | > 10 | > 10 | 0.715 | 0.791 | > 10 | > 10 | – | – | –
7 | CCCc1nnc(CNCc2cc(C(=O)O)cc(CO)n2)n1Cc1ccc(F)cc1 [Compound 73, 2-{[({4-[(4-fluorophenyl)methyl]-5-propyl-4H-1,2,4-triazol-3-yl}methyl)amino]methyl}-6-(hydroxymethyl)pyridine-4-carboxylic acid] | > 10 | > 10 | 0.252 | 1.65 | > 10 | > 10 | – | – | –
8 | C=C(C)c1cnc(CNCc2cc(C(=O)O)cc(C)n2)n1Cc1ccc(F)cc1 [Compound 103, 2-{[({1-[(4-fluorophenyl)methyl]-5-(prop-1-en-2-yl)-1H-imidazol-2-yl}methyl)amino]methyl}-6-methylpyridine-4-carboxylic acid] | > 10 | > 10 | 0.056 | 0.16 | > 10 | > 10 | – | – | –
9 | C/C=C/c1cnc(CNCc2cc(C(=O)O)cc(C)n2)n1Cc1ccc(F)cc1 [Compound 42, 2-{[({1-[(4-fluorophenyl)methyl]-5-[(1E)-prop-1-en-1-yl]-1H-imidazol-2-yl}methyl)amino]methyl}-6-methylpyridine-4-carboxylic acid] | > 10 | > 10 | 0.659 | 0.859 | > 10 | > 10 | – | – | –
10 | Cc1cc(C(=O)O)cc(CNCCc2nncn2Cc2ccc(C(F)(F)F)cc2)n1 [Compound 60, 2-methyl-6-({[2-(4-{[4-(trifluoromethyl)phenyl]methyl}-4H-1,2,4-triazol-3-yl)ethyl]amino}methyl)pyridine-4-carboxylic acid] | > 10 | > 10 | 1.62 | > 10 | – | 0.526 | > 10 | – | –
11 | CCc1nnc(CNCc2cc(C(=O)O)cc(CO)n2)n1Cc1ccc(F)cc1 [Compound 64, 2-{[({5-ethyl-4-[(4-Fluorophenyl)methyl]-4H-1,2,4-triazol-3-yl}methyl)amino]methyl}-6-(hydroxymethyl)pyridine-4-carboxylic acid] | > 10 | > 10 | 0.104 | 0.246 | > 10 | > 10 | – | – | –
12 | O=C(O)c1cc(CO)nc(CNCc2nncn2Cc2ccc(F)cc2)c1 [Compound 62, 2-{[({4-[(4-fluorophenyl)methyl]-4H-1,2,4-triazol-3-yl}methyl)amino]methyl}-6-(hydroxymethyl)pyridine-4-carboxylic acid] | – | 7.37 | 0.244 | 0.307 | – | – | – | 0.231 | –
13 | Cc1cc(C(=O)O)cc(CNCc2nnc(CCN(C)C)n2Cc2ccc(F)cc2)n1 [Compound 46, 2-{[({5-[2-(dimethylamino)ethyl]-4-[(4-fluorophenyl)methyl]-4H-1,2,4-triazol-3-yl}methyl)amino]methyl}-6-methylpyridine-4-carboxylic acid] | > 10 | > 10 | 2.27 | 2.28 | > 10 | > 10 | – | – | –
14 | CC(C)C[C@@H](CO)NCc1cc(C(=O)O)cc(CO)n1 [Compound 79, 2-({[(2S)-1-hydroxy-4-methylpentan-2-yl]amino}methyl)-6-(hydroxymethyl)pyridine-4-carboxylic acid] | > 10 | > 10 | > 10 | > 10 | > 10 | > 10 | > 10 | – | > 10
15 | CCc1nnc(CNCc2cc(C(=O)O)cc(C)n2)n1CCCc1ccccc1 [Compound 90, 2-[({[5-ethyl-4-(3-phenylpropyl)-4H-1,2,4-triazol-3-yl]methyl}amino)methyl]-6-methylpyridine-4-carboxylic acid] | > 10 | > 10 | 2.94 | 6.97 | > 10 | > 10 | – | – | –
